Source: patent publication US8349553B2, “Jasmonate based assays for identifying compounds that selectively inhibit mitochondrial bound hexokinases” (Ramot at Tel Aviv University Ltd., priority 2007, dated 2013)

Key:
[1] = system: mitochondria-bound hexokinase (mitochondrial fraction from a CT-26 tumor); assay: Hexokinase detachment assay, mitochondrial fraction of CT-26 tumor; format: biochemical, murine; details: CT-26 tumor mitochondrial fraction
Description: (§1) Mitochondrial fraction was prepared by mechanical lysis and differential centrifugation. All stages were performed on ice. Cells or extracted tissues were washed with PBS and disrupted by homogenization in extraction buffer (Sucrose 250 mM, HEPES-NaOH 10 mM, pH 7.2) freshly supplemented with 0.1 mM EDTA and Protease Inhibitors cocktail (Sigma). For each gram of cells or tissue, 4 volumes of extraction buffer were applied. The homogenate volume was doubled with the extraction buffer, and tissue and cell debris as well as nuclei were pelleted by centrifugation of 1,000 g for 10 minutes. The supernatant was further spun at 13,000 g for 10 minutes twice. Endoplasmic reticulum layer was removed. The pellet, designated as the mitochondrial fraction, was suspended in the appropriate buffer, depending on the assay for which the mitochondrial fraction was prepared. Mitochondrial fractions were used immediately or stored at −196° C.
To determine the amount of hexokinase detached from the mitochondrial fraction by different agents, mitochondria were incubated with the agent of interest and pelleted by centrifugation. Activity of hexokinase in the supernatant (i.e., activity of the detached hexokinase) was determined spectrophotometrically at 340 nm. The reaction couples the ADP formation by hexokinase, consuming the ADP for pyruvate formation by pyruvate kinase, and reducing the pyruvate with NADH by lactate dehydrogenase. Briefly, mitochondria were suspended in incubation buffer (HEPES pH 7.4 20 mM, Sucrose 0.25M, Glucose 10 mM, KCl5 mM, MgCl2 10 mM; 0.2 mg/test, 100 μL/test) and incubated as described below. […]
Methyl jasmonate perturbs mitochondria directly in a PTPC-dependent manner (Rotem, 2005). In order to determine whether methyl jasmonate is able to detach hexokinase from mitochondrial fraction isolated from CT-26 tumors, the activity of hexokinase in the supernatant of mitochondrial fraction treated for different time periods was measured. […] The activity of unbound hexokinase was measured and compared to the activity of spontaneously detached hexokinase (control).

[2] = system: mitochondria-bound hexokinase (mitochondrial fraction of Molt-4 cells); assay: Hexokinase detachment assay, mitochondrial fraction of Molt-4 cells; format: biochemical, human; details: Molt-4 mitochondrial fraction; 30 minutes at 37° C.
Description: as §1, with “C. […] Activity of hexokinase in the supernatant (i.e., activity of the detached hexokinase) was determined spectrophotometrically at 340 nm. […] Mitochondrial fractions isolated from different cancer cells, namely Molt-4 cells, BCL-1 leukemic cells and B16 melanoma tumors were incubated for 30 minutes at 37° C., and the activity of unbound hexokinase was measured and compared to the activity of spontaneously (control) detached hexokinase. […]” for “C.”

Molt-4 cells = assay: Trypan blue exclusion test, Molt-4; format: cell-based, human; details: 3 mM, 1 hour
Description: Cell death was determined by trypan blue exclusion. […] Alternatively, cytotoxicity was determined using hemacolor staining. […] In order to test the correlation between cellular ATP levels and the release of hexokinase from mitochondrial fraction different cancer cells, namely Molt-4 cells, BCL-1 leukemic cells and B16 melanoma tumors were exposed to various methyl jasmonate concentrations. […] CT26 and Molt-4 cells were then seeded in 24 well plates. CT26 cells were allowed to adhere over night. Cells were exposed to methyl jasmonate (MJ; 3 mM) for 1 hour. Trypan blue exclusion test was performed and cells were counted.

[3] = system: HKI and HKII (mitochondrial fraction of BCL-1); assay: Western blot of supernatants with anti-HKI and anti-HKII, BCL-1 mitochondrial fraction; format: biochemical, murine; details: BCL-1 mitochondrial fraction supernatant
Description: For analysis of hexokinase levels, the experiments were performed similarly to hexokinase detachment assay described above, and unbound hexokinase in the supernatant fraction was extracted as described in Fingrut (2005). Samples were separated by sodium dodecylsulfate-polyacrylamide gel (7%) electrophoresis followed by immunoblotting. The blots were probed with specific anti-HKI or anti-HKII antibodies (1:300, Santa-Cruz Biotechnology, CA, USA). Hexokinase-antibody complexes were stained with HRP-conjugated antibody (1:10,000, Santa-Cruz Biotechnology, CA, USA). Enhanced chemiluminescence (ECL) reagent (Biological Industries, Beit Haemek, Israel) was added, and the blots were exposed to ECL film (Eastman Kodak, Rochester, N.Y., USA). Hexokinase detachment from mitochondrial fraction is not limited to CT-26 colon carcinoma. Mitochondrial fractions isolated from different cancer cells, namely Molt-4 cells, BCL-1 leukemic cells and B16 melanoma tumors were incubated for 30 minutes at 37° C., and the activity of unbound hexokinase was measured and compared to the activity of spontaneously (control) detached hexokinase. […] The supernatant of the experiments were separated on SDS-PAGE and probed with anti-HKI and anti-HKII antibodies.

What does the source list for `CC/C=C\CC1C(=O)CCC1CC(=O)OC` (stereo not drawn) [methyl jasmonate]?
detachment of hexokinase (activity of unbound hexokinase compared to spontaneously detached control), time course ([1]; 3 mM, 10, 30 or 60 minutes at 37° C.): detached hexokinase in a time-dependent manner; detachment of hexokinase (activity of unbound hexokinase compared to control), dose dependence ([1]; 30 minutes of incubation): dose-dependent; detachment of hexokinase (activity of unbound hexokinase compared to control) [2]: detached hexokinase from mitochondrial fraction isolated from the three different cancer cells; sensitivity of Molt-4 relative to CT26 cells (Molt-4 cells): showed increased sensitivity with respect to CT26 tumor cells; live/dead cells by Trypan blue exclusion (Molt-4 cells; Molt-4): still alive after 60 minutes; detachment of hexokinase confirmed by immunoblot (anti-HKI, anti-HKII) [3]: detachment of hexokinase from mitochondrial fraction of the various cancer cells was further confirmed
